Data reported in patent publication US9580390B2, “Indazole compounds as kinase inhibitors and method of treating cancer with same” (University Health Network, priority 2011, dated 2017).
Like-named read-outs stand apart in the source and are kept apart here.

Columns and labels:
[1] = test system: colon cancer cells (HCT116); test: Cancer cell line growth inhibition (SRB assay); assay type: cell-based; details: Homo sapiens, HCT-116, read-out: Cancer Cell Line GI50 Range HCT116
TICs (Colon 12) = test: Colon tumor-initiating cell growth inhibition (Alamar Blue); assay type: cell-based; details: 216 h, 9 days, read-out: Tumor Initiating Cell GI50 Range Colon 12
TICs (Ovarian 2393A) = test: Ovarian tumor-initiating cell growth inhibition (Alamar Blue); assay type: cell-based; details: 144 h, 6 days, read-out: Tumor Initiating Cell GI50 Range Ovarain 2393A
[2] = test system: ovarian cancer cells (PA-1); test: Cancer cell line growth inhibition (SRB assay); assay type: cell-based; details: read-out: Cancer Cell Line GI50 Range PA-1
human TTK = target: T1, human TTK (Homo sapiens, UniProt P33981); test: TTK inhibition assay (indirect ELISA); assay type: biochemical; details: read-out: TTK IC50 Range
T1 construct: amino terminal GST fusion of full length human TTK; purchased Invitrogen
T1 sequence (P33981 1-857): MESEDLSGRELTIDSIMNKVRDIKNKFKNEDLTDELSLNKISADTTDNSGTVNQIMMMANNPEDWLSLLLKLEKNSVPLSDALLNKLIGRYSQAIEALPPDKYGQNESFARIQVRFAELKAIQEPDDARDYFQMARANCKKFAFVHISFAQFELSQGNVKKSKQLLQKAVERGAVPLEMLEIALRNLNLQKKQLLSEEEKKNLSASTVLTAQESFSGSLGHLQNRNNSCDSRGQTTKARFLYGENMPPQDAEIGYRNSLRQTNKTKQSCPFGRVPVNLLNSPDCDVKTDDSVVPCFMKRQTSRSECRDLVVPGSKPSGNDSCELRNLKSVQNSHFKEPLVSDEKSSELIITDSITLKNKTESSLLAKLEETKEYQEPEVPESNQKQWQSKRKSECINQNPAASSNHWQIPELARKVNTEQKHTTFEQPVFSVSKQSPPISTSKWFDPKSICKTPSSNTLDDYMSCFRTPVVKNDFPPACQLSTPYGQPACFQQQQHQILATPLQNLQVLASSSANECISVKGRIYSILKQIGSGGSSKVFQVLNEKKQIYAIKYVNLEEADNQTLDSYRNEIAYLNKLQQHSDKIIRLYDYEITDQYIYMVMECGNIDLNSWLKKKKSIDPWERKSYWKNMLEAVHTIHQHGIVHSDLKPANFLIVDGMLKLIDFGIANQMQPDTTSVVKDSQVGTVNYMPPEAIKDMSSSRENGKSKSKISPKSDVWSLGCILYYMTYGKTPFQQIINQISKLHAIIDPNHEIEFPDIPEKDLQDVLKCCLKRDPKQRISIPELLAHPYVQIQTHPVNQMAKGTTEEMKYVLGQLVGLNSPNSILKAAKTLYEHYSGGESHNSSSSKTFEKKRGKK

Breast cancer cells = test: Cancer cell line growth inhibition (SRB assay); assay type: cell-based; details: Homo sapiens; MDA-MB-468; read-out: Cancer Cell Line GI50 Range MDA-MB-468
[3] = HCT116 colon cancer cells, SRB assay
[4] = PA-1 ovarian cancer cells, SRB assay

GI50 [1]	GI50 (TICs (Colon 12); Colon 12 TICs)	GI50 (TICs (Ovarian 2393A); Ovarian 2393A TICs)	GI50 ([2]; Homo sapiens, PA-1)	IC50 (human TTK)	GI50 (Breast cancer cells)	GI50 [1, 3]	GI50 (TICs (Colon 12); colon TICs, Alamar Blue)	GI50 (TICs (Ovarian 2393A); ovarian TICs, Alamar Blue)	GI50 [2, 4]	SMILES
100 to 500 nM	> 500 nM	100 to 500 nM	100 to 500 nM	< 100 nM	100 to 500 nM	–	–	–	–	CC(C)[C@H](NC(=O)c1ccc2[nH]nc(-c3ccc(OC4CCN(C[C@@H](O)C(F)(F)F)CC4)cc3)c2c1)c1ccccc1Cl [Example A228, N-((S)-1-(2-chlorophenyl)-2-methylpropyl)-3-(4-((1-((R)-3,3,3-trifluoro-2-hydroxypropyl)piperidin-4-yl)oxy)phenyl)-1H-indazole-5-carboxamide]
100 to 500 nM	> 500 nM	> 500 nM	100 to 500 nM	< 100 nM	> 500 nM	–	–	–	–	CN1CCC(Oc2ccc(-c3n[nH]c4ccc(C(=O)NC(c5ccccn5)C5CC5)cc34)cc2S(C)(=O)=O)CC1 (stereo not drawn) [Example A245, N-(cyclopropyl(pyridin-2-yl)methyl)-3-(4-((1-methylpiperidin-4-yl)oxy)-3-(methylsulfonyl)phenyl)-1H-indazole-5-carboxamide]
100 to 500 nM	> 500 nM	> 500 nM	< 100 nM	< 100 nM	> 500 nM	–	–	–	–	CN1CCC(Oc2ccc(-c3n[nH]c4ccc(C(=O)NC(c5ccccc5)C5CC5)cc34)cc2S(C)(=O)=O)CC1 (stereo not drawn) [Example A246, N-(cyclopropyl(phenyl)methyl)-3-(4-((1-methylpiperidin-4-yl)oxy)-3-(methylsulfonyl)phenyl)-1H-indazole-5-carboxamide]
< 100 nM	100 to 500 nM	100 to 500 nM	< 100 nM	< 100 nM	100 to 500 nM	–	–	–	–	CN1CCC2(CC1)CC(=O)c1cc(-c3n[nH]c4ccc(C(=O)N[C@H](c5ccccn5)C5CC5)cc34)ccc1O2 [Example A257, (S)-N-(cyclopropyl(pyridin-2-yl)methyl)-3-(1′-methyl-4-oxospiro[chroman-2,4′-piperidin]-6-yl)-1H-indazole-5-carboxamide]
< 100 nM	< 100 nM	< 100 nM	< 100 nM	< 100 nM	< 100 nM	–	–	–	–	CC1=CC2(CCN(C)CC2)Oc2ccc(-c3n[nH]c4ccc(C(=O)N[C@H](c5ccccc5Cl)C(C)C)cc34)cc21 [Example A258, (S)-N-(1-(2-chlorophenyl)-2-methylpropyl)-3-(1′,4-dimethylspiro[chromene-2,4′-piperidin]-6-yl)-1H-indazole-5-carboxamide]
< 100 nM	100 to 500 nM	< 100 nM	< 100 nM	< 100 nM	< 100 nM	–	–	–	–	CC(C)[C@H](NC(=O)c1ccc2[nH]nc(-c3ccc(OC4CCN(C)CC4)c(S(C)(=O)=O)c3)c2c1)c1ccccc1Cl [Example A259, (S)-N-(1-(2-chlorophenyl)-2-methylpropyl)-3-(4-((1-methylpiperidin-4-yl)oxy)-3-(methylsulfonyl)phenyl)-1H-indazole-5-carboxamide]
< 100 nM	100 to 500 nM	< 100 nM	< 100 nM	< 100 nM	< 100 nM	–	–	–	–	CC1=CC2(CCN(C)CC2)Oc2ccc(-c3n[nH]c4ccc(C(=O)N[C@H](c5ccccn5)C5CC5)cc34)cc21 [Example A260, (S)-N-(cyclopropyl(pyridin-2-yl)methyl)-3-(1′,4-dimethylspiro[chromene-2,4′-piperidin]-6-yl)-1H-indazole-5-carboxamide]
< 100 nM	100 to 500 nM	100 to 500 nM	< 100 nM	< 100 nM	< 100 nM	–	–	–	–	O=C(N[C@H](c1ccccn1)C1CC1)c1ccc2[nH]nc(-c3ccc4c(c3)C(=O)CC3(CCN(C5COC5)CC3)O4)c2c1 [Example A264, (S)-N-(cyclopropyl(pyridin-2-yl)methyl)-3-(1′-(oxetan-3-yl)-4-oxospiro[chroman-2,4′-piperidin]-6-yl)-1H-indazole-5-carboxamide]
< 100 nM	< 100 nM	< 100 nM	< 100 nM	< 100 nM	< 100 nM	–	–	–	–	O=C(N[C@H](c1ccccc1F)C1CC1)c1ccc2[nH]nc(-c3ccc(N4CCN(C5COC5)CC4)cc3)c2c1 [Example A269, (S)-N-(cyclopropyl(2-fluorophenyl)methyl)-3-(4-(4-(oxetan-3-yl)piperazin-1-yl)phenyl)-1H-indazole-5-carboxamide]
< 100 nM	< 100 nM	< 100 nM	< 100 nM	< 100 nM	< 100 nM	–	–	–	–	CC(C)[C@H](NC(=O)c1ccc2[nH]nc(-c3ccc(OC4CCN(C)CC4)cc3)c2c1)c1ccccc1Cl [Example A273, (S)-N-(1-(2-chlorophenyl)-2-methylpropyl)-3-(4-((1-methylpiperidin-4-yl)oxy)phenyl)-1H-indazole-5-carboxamide]
–	–	–	–	< 100 nM	–	100 to 500 nM	> 500 nM	> 500 nM	100 to 500 nM	CN1CCC(Oc2ccc(-c3n[nH]c4ccc(C(=O)NCC5(c6cccnc6)CCCCC5)cc34)cc2)CC1 [Example A482, 3-(4-((1-methylpiperidin-4-yl)oxy)phenyl)-N-((1-(pyridin-3-yl)cyclohexyl)methyl)-1H-indazole-5-carboxamide]
< 100 nM	< 100 nM	< 100 nM	< 100 nM	< 100 nM	–	–	–	–	–	O=C(NCC1(N2CCOCC2)CCCCC1)c1ccc2[nH]nc(-c3ccc(N4CCN(C5COC5)CC4)cc3)c2c1 [Example A500, N-((1-morpholinocyclohexyl)methyl)-3-(4-(4-(oxetan-3-yl)piperazin-1-yl)phenyl)-1H-indazole-5-carboxamide]
–	–	–	–	< 100 nM	–	< 100 nM	100 to 500 nM	100 to 500 nM	100 to 500 nM	O=CN1CCC(Oc2ccc(-c3n[nH]c4ccc(C(=O)NCC5(N6CCOCC6)CCCCC5)cc34)cc2)CC1 [Example A504, 3-(4-((1-formylpiperidin-4-yl)oxy)phenyl)-N-((1-morpholinocyclohexyl)methyl)-1H-indazole-5-carboxamide]

SMILES	GI50 [1]	GI50 (TICs (Colon 12); Colon 12 TICs)	GI50 (TICs (Ovarian 2393A); Ovarian 2393A TICs)	GI50 ([2]; Homo sapiens, PA-1)	IC50 (human TTK)	GI50 (Breast cancer cells)	GI50 [1, 3]	GI50 (TICs (Colon 12); colon TICs, Alamar Blue)	GI50 (TICs (Ovarian 2393A); ovarian TICs, Alamar Blue)	GI50 [2, 4]
CN1[C@@H]2CC[C@H]1C[C@@H](Oc1ccc(-c3n[nH]c4ccc(C(=O)NC(c5ccccn5)C5CCCC5)cc34)cc1)C2 (stereo partly drawn) [Example A244, N-(cyclopentyl(pyridin-2-yl)methyl)-3-(4-(((1R,3R,5S)-8-methyl-8-azabicyclo[3.2.1]octan-3-yl)oxy)phenyl)-1H-indazole-5-carboxamide]	< 100 nM	100 to 500 nM	100 to 500 nM	< 100 nM	< 100 nM	100 to 500 nM	–	–	–	–
O=C(N[C@H](c1ccccc1F)C1CC1)c1ccc2[nH]nc(-c3ccc(N4C5CCC4CC(O)C5)cc3)c2c1 (stereo partly drawn) [Example A265, N-((S)-cyclopropyl(2-fluorophenyl)methyl)-3-(4-((1R,3R,5S)-3-hydroxy-8-azabicyclo[3.2.1]octan-8-yl)phenyl)-1H-indazole-5-carboxamide]	< 100 nM	< 100 nM	< 100 nM	< 100 nM	< 100 nM	< 100 nM	–	–	–	–
O=C(N[C@@H](c1ccccc1F)C1CC1)c1ccc2[nH]nc(-c3ccc(N4C5CCC4CC(O)C5)cc3)c2c1 (stereo partly drawn) [Example A266, N-((R)-cyclopropyl(2-fluorophenyl)methyl)-3-(4-((1R,3R,5S)-3-hydroxy-8-azabicyclo[3.2.1]octan-8-yl)phenyl)-1H-indazole-5-carboxamide]	< 100 nM	< 100 nM	< 100 nM	< 100 nM	< 100 nM	< 100 nM	–	–	–	–
